Source: patent publication US20120045393A1 (priority 2009, published 2012)
Where two headings read alike, the source gives them in different places. Non-standard residues stand in square brackets, D forms with d. *: point of attachment. Bpa = N[C@@H](Cc1ccc(C(=O)c2ccccc2)cc1)C(=O)O; d1Nal = N[C@H](Cc1cccc2ccccc12)C(=O)O; d2Nal = N[C@H](Cc1ccc2ccccc2c1)C(=O)O; Hyp = O=C(O)[C@@H]1C[C@@H](O)CN1; d3Pal = N[C@H](Cc1cccnc1)C(=O)O; His(1-Me) = 1-methylhistidine; DO3A10CM = not defined here; Nicotinoyl = O=C(c1cccnc1)*; Bpa4 = non-natural residue; Amfe4 = not defined here; Bzgly = not defined here; Dcfe4 = not defined here; dCfe4 = not defined here; Afe4 = not defined here; azaGly = NNC(=O)O; Sar = CNCC(=O)O; iPr = CC(C)*

What was measured:
[1] = test system: EFO-27 human ovarian cancer cells (LHRH binding sites); test: Direct binding/uptake of 177Lu-labeled LHRH-II analogs to EFO-27 cells; details: 177Lu-labeled analog, single concentration
Method: All reagents and chemicals were obtained from Sigma unless otherwise specified. LHRH analogs and ^177Lu-LHRH-II analogs were prepared by in-house chemists, as described elsewhere in the application. ^177Lu-LHRH-II analogs were not HPLC purified, as they had been prepared using formulation conditions that yielded high RCP without the need for purification. […] The HPLC-purified material was taken in a stabilizing buffer containing 5% lactose, 0.1% L-cysteine hydrochloride and 800 KIU/mL aprotinin and received as a lyophilized product and stored at −70° C. This was reconstituted in distilled water, aliquoted and stored at −70° C. The radioactivity was determined using Microplate Scintillation counter (Wallac Microbeta Trilux).
For the binding assay, EFO-27 cells were seeded onto 96-well clear flat-bottom tissue-culture-treated plates at 15,000/well density in the growth medium and used for assay on day 2 post-seeding. Cells were routinely checked for confluence and contamination and cell count was done occasionally to ensure consistency in cell numbers.
Direct Binding: Direct binding studies were carried out by incubating appropriate ^177Lu-labeled compounds with EFO-27 cells at 4° C. for 1 h followed by washing off the unbound radioactivity. Non-specific binding was determined by incubating the ^177Lu-LHRH-II analogs in the presence of a large excess (30 uM) of cold (unlabeled) LHRH-II analogs. A 96-well plate format was used.

[2] = test system: LHRH binding sites on human ovarian cancer cells (EFO-27);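 also: Cell-associated radioactivity on confluent EFO-27 monolayers in 96-well plates, measured by microplate scintillation counting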
[3] = target: LHRH receptor (LHRH binding sites) on EFO-27 human ovarian cancer cells (human); test: direct binding of 177Lu-labeled peptide to EFO-27 cells, single concentration
[4] = Table 13: linker between AA1 and DO3A10CM, EFO-27 cells
[5] = read-out: 125I-LHRH II Competition EC50, Table 24, unlabeled analogs, EFO-27 cells

## CN(CC(=O)N[C@@H](Cc1c[nH]cn1)C(=O)N[C@@H](Cc1c[nH]c2ccccc12)C(=O)N[C@@H](CO)C(=O)N[C@@H](Cc1c[nH]cn1)C(=O)N[C@H](CCCNC(=N)N)C(=O)N[C@@H](Cc1c[nH]c2ccccc12)C(=O)N[C@@H](Cc1ccc(C(=O)c2ccccc2)cc1)C(=O)N1CCC[C@H]1C(=O)NNC(N)=O)C(=O)CN1CCN(CC(=O)O)CCN(CC(=O)O)CCN(CC(=O)O)CC1 [compound 2443]
[1]
  177Lu-LHRH II Direct binding % Bound: 1.8%
[2]; Table 11: modification of amino acid at position 5, EFO-27 cells
  EC50: 950 nM
[2]; [4]
  EC50: 950 nM
[2]; [5]
  EC50: 950 nM

## 2756 (DO3A10CM-[Sar][Amfe4]WSH[dR]W[Bpa4]P[azaGly]-NH2; reading uncertain) [compound 2756]
[1]
  177Lu-LHRH II Direct binding % Bound: 5.17%
[2]; [5]
  EC50: 280 nM

## N=C(N)NCCC[C@H](NC(=O)[C@@H](Cc1ccc2ccccc2c1)NC(=O)CN1CCN(CC(=O)O)CCN(CC(=O)O)CCN(CC(=O)O)CC1)C(=O)N[C@@H](Cc1c[nH]c2ccccc12)C(=O)N[C@@H](CO)C(=O)N[C@@H](Cc1c[nH]cn1)C(=O)N[C@H](CCCNC(=N)N)C(=O)N[C@@H](Cc1c[nH]c2ccccc12)C(=O)N[C@@H](Cc1ccc(C(=O)c2ccccc2)cc1)C(=O)N1CCC[C@H]1C(=O)NCCOCCN [compound 2968]
[1]
  177Lu-LHRH II Direct binding % Bound: 23.5%
[2]
  EC50: 240 nM

## 2721 (XHWSHXWXPX; not fully specified; N-methyl) [compound 2721]
[1]
  177Lu-LHRH II Direct binding % Bound: 0.79%
[2]; [5]
  EC50: 4550 nM

## 2642 (DO3A10CM-G[d2Nal][Dcfe4][d3Pal]S[Metyr][dK](Nicotinoyl)LK(iPr)[Hyp][dA]-NH2; reading uncertain) [compound 2642]
[1]
  177Lu-LHRH II Direct binding % Bound: 0.105%
[2]; [5]
  EC50: > 10000 nM

## 2725 (XHWSHXWXPX; not fully specified; N-methyl) [compound 2725]
[1]
  177Lu-LHRH II Direct binding % Bound: 0.41%
[2]; [5]
  EC50: 2260 nM

## 2742 (XHWSHXWXPX; N-methyl) [compound 2742]
[1]
  177Lu-LHRH II Direct binding % Bound: 0.125%
[2]; [5]
  EC50: > 10000 nM

## 2741 (DO3A10CM-[Sar][His(1-Me)]WSH[dR]W[Bpa]P[azaGly]-NH2; reading uncertain) [compound 2741]
[1]
  177Lu-LHRH II Direct binding % Bound: 1.35%
[2]; [5]
  EC50: 2990 nM

## 2440 (DO3A10CM-[Sar]HWSH[dR]WYP[azaGly]-NH2; reading uncertain) [compound 2440]
[1]
  177Lu-LHRH II Direct binding % Bound: 0.21%
[2]; [5]
  EC50: > 10000 nM

## 2766 (DO3A10CM-G[d1Nal]HWSH[dR]W[Bpa]P[azaGly]-NH2; reading uncertain) [compound 2766]
[1]
  177Lu-LHRH II Direct binding % Bound: 10.29%
[2]; [5]
  EC50: 620 nM

## N=C(N)NCCC[C@@H](NC(=O)[C@H](Cc1c[nH]cn1)NC(=O)[C@H](CO)NC(=O)[C@H](Cc1c[nH]c2ccccc12)NC(=O)[C@H](Cc1c[nH]cn1)NC(=O)CN(Cc1ccccc1)C(=O)CNC(=O)CN1CCN(CC(=O)O)CCN(CC(=O)O)CCN(CC(=O)O)CC1)C(=O)N[C@@H](Cc1c[nH]c2ccccc12)C(=O)N[C@@H](Cc1ccc(C(=O)c2ccccc2)cc1)C(=O)N1CCC[C@H]1C(=O)NNC(N)=O [compound 2792]
[1]
  177Lu-LHRH II Direct binding % Bound: 1.28%
[2]; Table 8: N-substituted amino acid at position 1 and Gly as linker, in vitro binding on EFO-27 cells
  EC50: 2270 nM
[2]; [4]
  EC50: 650 nM
[2]; [5]
  EC50: 1800 nM

## 2624 (XHWSHXWXPX; N-methyl) [compound 2624]
[1]
  177Lu-LHRH II Direct binding % Bound: 4.03%
[2]; [5]
  EC50: 2010 nM

## 2722 (XHWSHXWXPX; not fully specified; N-methyl) [compound 2722]
[1]
  177Lu-LHRH II Direct binding % Bound: 0.36%
[2]; [5]
  EC50: 4620 nM

## 2738 (XFWSHXWXPX; N-methyl) [compound 2738]
[1]
  177Lu-LHRH II Direct binding % Bound: 1.41%

## N=C(N)NCCC[C@@H](NC(=O)[C@H](Cc1c[nH]cn1)NC(=O)[C@H](CO)NC(=O)[C@H](Cc1c[nH]c2ccccc12)NC(=O)[C@H](Cc1c[nH]cn1)NC(=O)[C@@H](Cc1ccc2ccccc2c1)NC(=O)CN1CCN(CC(=O)O)CCN(CC(=O)O)CCN(CC(=O)O)CC1)C(=O)N[C@@H](Cc1c[nH]c2ccccc12)C(=O)N[C@@H](Cc1ccc(C(=O)c2ccccc2)cc1)C(=O)N1CCC[C@H]1C(=O)NNC(N)=O [compound 2666]
[1]
  177Lu-LHRH II Direct binding % Bound: 13.25%

B1: ^177Lu-BRU-2624 (peptide)
peptide: XHWSHXWXPX
modifications: 177Lu held by the N-terminal DO3A10CM: 177Lu-DO3A10CM-Sar-His-Trp-Ser-His-Darg-Trp-Nal2-Pro-azaGly-NH2
[3]
  % Bound: 4.03%

B2: ^177Lu-BRU-2738 (peptide)
peptide: XFWSHXWXPX
modifications: 177Lu held by the N-terminal DO3A10CM: 177Lu-DO3A10CM-Sar-Phe-Trp-Ser-His-Darg-Trp-Bpa4-Pro-azaGly-NH2
[3]
  % Bound: 1.41%

B3: ^177Lu-BRU-2696 (peptide)
peptide: XXHWSHXWXPX
modifications: 177Lu held by the N-terminal DO3A10CM: 177Lu-DO3A10CM-Gly-Abz4-Sar-His-Trp-Ser-His-Darg-Trp-Bpa4-Pro-azaGly-NH2
[3]
  % Bound: 0.94%

B4: ^177Lu-BRU-2894 (peptide)
peptide: XHWSHXWXPX
modifications: 177Lu held by the N-terminal DO3A10CM: 177Lu-DO3A10CM-Dphe-His-Trp-Ser-His-Darg-Trp-Bpa4-Pro-azaGly-NH2
[3]
  % Bound: 3.4%

B5: ^177Lu-BRU-2810 (peptide)
peptide: XHWSHXWXPX
modifications: 177Lu held by the N-terminal DO3A10CM: 177Lu-DO3A10CM-Dafe4-His-Trp-Ser-His-Darg-Trp-Bpa4-Pro-azaGly-NH2
[3]
  % Bound: 2.4%

B6: ^177Lu-BRU-2725 (peptide)
peptide: XHWSHXWXPX
modifications: 177Lu held by the N-terminal DO3A10CM: 177Lu-DO3A10CM-Sar-His-Trp-Ser-His-Darg-Trp-Cfe4-Pro-azaGly-NH2
[3]
  % Bound: 0.41%

B7: ^177Lu-BRU-2721 (peptide)
peptide: XHWSHXWXPX
modifications: 177Lu held by the N-terminal DO3A10CM: 177Lu-DO3A10CM-Sar-His-Trp-Ser-His-Darg-Trp-Dip-Pro-azaGly-NH2
[3]
  % Bound: 0.79%

B8: ^177Lu-BRU-2736 (peptide)
peptide: XHWSHXWXPX
modifications: 177Lu held by the N-terminal DO3A10CM: 177Lu-DO3A10CM-Meala-His-Trp-Ser-His-Darg-Trp-Bpa4-Pro-azaGly-NH2
[3]
  % Bound: 1.62%

B9: ^177Lu-BRU-2792 (peptide)
peptide: DO3A10CM-G[Bzgly]HWSH[dR]W[Bpa]P[azaGly]-NH2
modifications: reading uncertain; also: 177Lu complexed by DO3A10CM, printed as 177Lu-DO3A10CM-Gly-Bzgly-His-Trp-Ser-His-Darg-Trp-Bpa4-Pro-azaGly-NH2
[3]
  % Bound: 1.28%

B10: ^177Lu-BRU-2896 (peptide)
peptide: XHWSHXWXPX
modifications: 177Lu held by the N-terminal DO3A10CM: 177Lu-DO3A10CM-Adoa-Adoa-Sar-His-Trp-Ser-His-Darg-Trp-Bpa4-Pro-azaGly-NH2
[3]
  % Bound: 0.7%

B11: ^177Lu-BRU-2823 (peptide)
peptide: XHWSHXWXPX
modifications: 177Lu held by the N-terminal DO3A10CM: 177Lu-DO3A10CM-Sar-His-Trp-Ser-His-Darg-Trp-Thy-Pro-azaGly-NH2
[3]
  % Bound: 1%

B12: ^177Lu-BRU-2812 (peptide)
peptide: DO3A10CM-[d2Nal][Afe4]WSH[dR]W[Bpa]P[azaGly]-NH2
modifications: reading uncertain; also: 177Lu held by N-terminal DO3A10CM, printed as 177Lu-DO3A10CM-Dnal2-Afe4-Trp-Ser-His-Darg-Trp-Bpa4-Pro-azaGly-NH2
[3]
  % Bound: 5.8%

B13: ^177Lu-BRU-2742 (peptide)
peptide: XHWSHXWXPX
modifications: 177Lu held by the N-terminal DO3A10CM: 177Lu-DO3A10CM-Sar-His-Trp-Ser-His-Darg-Trp-Tha-Pro-azaGly-NH2
[3]
  % Bound: 0.125%

B14: ^177Lu-BRU-2741 (peptide)
peptide: DO3A10CM-[Sar][His(1-Me)]WSH[dR]W[Bpa]P[azaGly]-NH2
modifications: reading uncertain; also: 177Lu complexed by DO3A10CM, printed as 177Lu-DO3A10CM-Sar-His(1-Me)-Trp-Ser-His-Darg-Trp-Bpa4-Pro-azaGly-NH2
[3]
  % Bound: 1.35%

B15: ^177Lu-BRU-2869 (peptide)
peptide: XHWSHXWXPX
modifications: 177Lu held by the N-terminal DO3A10CM: 177Lu-DO3A10CM-Dnal1-His-Trp-Ser-His-Darg-Trp-Bpa4-Pro-azaGly-NH2
[3]
  % Bound: 9.2%

B16: ^177Lu-BRU-2766 (peptide)
peptide: DO3A10CM-G[d1Nal]HWSH[dR]W[Bpa]P[azaGly]-NH2
modifications: reading uncertain; also: 177Lu complexed by DO3A10CM, printed as 177Lu-DO3A10CM-Gly-Dnal1-His-Trp-Ser-His-Darg-Trp-Bpa4-Pro-azaGly-NH2
[3]
  % Bound: 10.3%

B17: ^177Lu-BRU-2722 (peptide)
peptide: XHWSHXWXPX
modifications: 177Lu held by the N-terminal DO3A10CM: 177Lu-DO3A10CM-Sar-His-Trp-Ser-His-Darg-Trp-F5fe-Pro-azaGly-NH2
[3]
  % Bound: 0.36%

B18: ^177Lu-BRU-2644 (peptide)
peptide: DO3A10CM-G[d2Nal][dCfe4][d3Pal]SH[dR]WYP[dA]-NH2
modifications: reading uncertain; also: 177Lu complexed by DO3A10CM, printed as 177Lu-DO3A10CM-Gly-Dnal2-Dcfe4-Dpal3-Ser-His-Darg-Trp-Tyr-Pro-Dala-NH2
[3]
  % Bound: 2.13%

B19: ^177Lu-BRU-2767 (peptide)
peptide: DO3A10CM-[Sar]HWSH[dR]WP[azaGly]-NH2
modifications: reading uncertain; also: 177Lu complexed by DO3A10CM, printed as 177Lu-DO3A10CM-Sar-His-Trp-Ser-His-Darg-Trp-azaG-NH2
[3]
  % Bound: 1.06%
